According to patent US6440995B1, “Quinolin-4-yl derivatives” (Hoffman-La Roche Inc., priority 1999, dated 2002):
Structures can show the parent of a compound that is named as a salt.

Tested on: not given
Assay: not given
Details: not given

melting point [°C]	SMILES
264 to 267	Cc1ccc(-c2cc(NC[C@H](C)O)c3ccc(C)cc3n2)cc1.Cl
236 to 242	C[C@H](O)CNc1cc(-c2ccc3c(c2)CCO3)nc2ccccc12.Cl
262 to 264	Cl.OCCNc1cc(-c2ccc(Cl)cc2)nc2ccccc12
233 to 238	COc1ccc(-c2cc(NCCO)c3ccc(C)cc3n2)cc1.Cl
205 to 209	COc1cccc2c(NCCO)cc(-c3ccccc3)nc12.Cl
260 to 263	Cc1ccc(-c2cc(NCCO)c3ccc(C)cc3n2)cc1.Cl
170 to 174	CCNCC(O)COc1cc(-c2ccccc2)nc2ccccc12.Cl (stereo not shown)
146 to 150	CNCC(O)COc1cc(-c2ccc(C)cc2)nc2cc(C)ccc12 (racemic)
192 to 193	CNCC(O)COc1cc(-c2ccccc2)nc2cc(Cl)ccc12.Cl (racemic)
236 to 238	CNCC(O)COc1cc(-c2ccsc2)nc2ccccc12.Cl (racemic)
220 to 222	O=C(O)/C=C/C(=O)O.OCC(O)CNc1cc(/C=C/c2ccccc2)nc2ccccc12 (racemic)
230 to 231	Cc1ccc(-c2cc(NCC(O)CO)c3ccccc3n2)cc1Cl.Cl (racemic)
283 to 287	Cl.Cl.NCC(O)CNc1cc(-c2ccc(Cl)cc2)nc2ccccc12 (racemic)
295 to 301	Cl.OCC(O)CNc1cc(N2Cc3ccccc3C2)nc2ccccc12 (racemic)
291 to 294	Cl.NCC(O)CNc1cc(-c2ccccc2)nc2ccccc12 (racemic)
110 to 116	COc1cccc2c(NCC(O)CO)cc(-c3ccccc3)nc12.Cl (racemic)
263 to 265	Cl.OCC(O)CNc1cc(-c2cc3ccccc3o2)nc2ccccc12 (racemic)
208 to 215	Cc1cccc(-c2cc(NCC(O)CO)c3ccccc3n2)c1.Cl (racemic)
283 to 287	NCC(O)CNc1cc(-c2ccc(Cl)cc2)nc2ccccc12 (racemic)
225 to 227	Cl.OCC(O)CNc1cc(-c2ccccc2)nc2ccccc12 (racemic)
251 to 253	CC(O)CNc1cc(-c2ccccc2)nc2ccccc12.Cl (racemic)
143 to 145	Cl.OCC(O)CNc1cc(CCc2ccccc2)nc2ccccc12 (racemic)
109 to 111	CC(C)NCC(O)COc1cc(-c2ccccc2)nc2ccccc12 (racemic)
140 to 142	CNCC(O)COc1cc(-c2ccc(OC)cc2)nc2cc(C)ccc12 (racemic)

SMILES	melting point [°C]
OCC(O)CNc1cc(-c2ccc3c(c2)CCO3)nc2ccccc12 (racemic) (as salt: hydrochloride) [Example 32, (RS)-3-[2-(2,3-Dihydro-benzofuran-5-yl)-quinolin-4-ylamino]-propane-1,2-diol hydrochloride]	267 to 270
Cc1ccc(-c2cc(NCC(O)CN)c3ccccc3n2)cc1.Cl (racemic) [Example 2, (RS)-1-Amino-3-(2-p-tolyl-quinolin-4-ylamino)-propan-2-ol hydrochloride]	264 to 272
Cl.OCCNc1cc(-c2ccc3c(c2)CCCC3)nc2ccccc12 [Example 18, 2-[2-(5,6,7,8-Tetrahydro-naphthalen-2-yl)-quinolin-4-ylamino]-ethanol hydrochloride]	250 to 252
COc1ccc(-c2cc(N(C)CCO)c3ccccc3n2)cc1.Cl [Example 46, 2-{[2-(4-Methoxy-phenyl)-quinolin-4-yl]-methyl-amino}-ethanol hydrochloride]	201 to 204

Molecular target: T1, NMDA receptor (Rattus norvegicus, UniProt P35439+Q00960)
T1 construct: Membranes were prepared by homogenization of the whole brain minus cerebellum and medulla oblongata; from tissue; host or cells: rat whole brain minus cerebellum and medulla oblongata, membranes
T1 sequence (Q00960 27-1482, other chains not shown): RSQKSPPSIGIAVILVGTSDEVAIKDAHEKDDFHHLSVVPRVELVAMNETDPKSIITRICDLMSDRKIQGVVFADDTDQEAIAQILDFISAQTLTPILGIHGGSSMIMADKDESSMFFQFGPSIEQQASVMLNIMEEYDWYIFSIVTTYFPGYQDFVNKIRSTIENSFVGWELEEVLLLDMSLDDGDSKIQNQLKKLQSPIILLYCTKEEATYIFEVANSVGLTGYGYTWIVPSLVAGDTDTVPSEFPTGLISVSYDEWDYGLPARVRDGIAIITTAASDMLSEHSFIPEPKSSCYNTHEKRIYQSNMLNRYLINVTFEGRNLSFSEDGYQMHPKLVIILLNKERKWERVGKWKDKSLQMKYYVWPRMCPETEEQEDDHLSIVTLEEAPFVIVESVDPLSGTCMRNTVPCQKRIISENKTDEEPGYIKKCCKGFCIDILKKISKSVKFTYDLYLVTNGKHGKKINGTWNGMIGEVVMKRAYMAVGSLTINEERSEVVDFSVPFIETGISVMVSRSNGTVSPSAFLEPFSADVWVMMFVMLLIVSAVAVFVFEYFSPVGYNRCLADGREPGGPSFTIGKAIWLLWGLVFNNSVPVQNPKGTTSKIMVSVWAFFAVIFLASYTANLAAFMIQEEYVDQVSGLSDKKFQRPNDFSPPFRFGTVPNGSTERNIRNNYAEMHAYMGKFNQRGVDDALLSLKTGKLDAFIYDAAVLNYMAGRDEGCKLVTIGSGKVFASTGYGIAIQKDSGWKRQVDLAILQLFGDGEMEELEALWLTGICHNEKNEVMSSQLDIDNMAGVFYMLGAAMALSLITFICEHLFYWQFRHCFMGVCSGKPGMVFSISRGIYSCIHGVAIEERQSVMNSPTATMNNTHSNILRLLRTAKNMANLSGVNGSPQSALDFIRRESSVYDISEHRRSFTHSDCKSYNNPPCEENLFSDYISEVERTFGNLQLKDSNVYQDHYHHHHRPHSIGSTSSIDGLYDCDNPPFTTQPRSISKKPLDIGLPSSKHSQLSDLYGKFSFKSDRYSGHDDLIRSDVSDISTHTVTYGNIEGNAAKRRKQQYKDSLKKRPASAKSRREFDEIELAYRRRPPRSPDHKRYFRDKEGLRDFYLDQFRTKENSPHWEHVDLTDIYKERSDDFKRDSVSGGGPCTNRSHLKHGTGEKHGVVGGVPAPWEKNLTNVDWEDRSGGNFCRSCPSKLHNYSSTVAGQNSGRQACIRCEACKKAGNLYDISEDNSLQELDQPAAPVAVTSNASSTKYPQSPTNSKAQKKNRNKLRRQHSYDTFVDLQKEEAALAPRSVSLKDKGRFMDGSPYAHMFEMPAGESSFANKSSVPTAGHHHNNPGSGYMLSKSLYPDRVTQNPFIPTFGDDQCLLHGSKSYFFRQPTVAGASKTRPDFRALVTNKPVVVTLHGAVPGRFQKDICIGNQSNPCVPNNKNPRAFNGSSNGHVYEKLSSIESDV
Assay: 3H-Ro 25-6981 binding (displacement, rat brain membranes)
Details: displacement of 5 nM 3H-Ro 25-6981; rat whole brain minus cerebellum and medulla oblongata membranes; 2 hours at 4° C., pH 7.4
Procedure: 3H-Ro 25-6981 binding (Ro 25-6981 is [R-(R*,S*)]-a-(4-Hydroxy-phenyl)-b-methyl-4-(phenyl-methyl)-1-piperidine propanol)
Male Füllinsdorf albino rats weighing between 150-200 g were used. Membranes were prepared by homogenization of the whole brain minus cerebellum and medulla oblongata with a Polytron (10 000 rpm, 30 seconds), in 25 volumes of a cold Tris-HCl 50 mM, EDTA 10 mM, pH 7.1 buffer. The homogenate was centrifuged at 48.000 g for 10 minutes at 4° C. The pellet was resuspended using the Polytron in the same volume of buffer and the homogenate was incubated at 37° C. for 10 minutes. After centrifugation the pellet was homogenized in the same buffer and frozen at −80° C. for at least 16 hours but not more than 10 days. For the binding assay the homogenate was thawed at 37° C., centrifuged and the pellet was washed three times as above in a Tris-HCl 5 mM, pH 7.4 cold buffer. The final pellet was resuspended in the same buffer and used at a final concentration of […].
3H-Ro 25-6981 binding experiments were performed using a Tris-HCl 50 mM, pH 7.4 buffer. For displacement experiments 5 nM of 3H-Ro 25-6981 were used and non specific binding was measured using 10 mM of tetrahydroisoquinoline and usually it accounts for 10% of the total. The incubation time was 2 hours at 4° C. and the assay was stopped by filtration on Whatmann GF/B glass fiber filters (Unifilter-96, Packard, Zürich, Switzerland). The filters were washed 5 times with cold buffer. The radioactivity on the filter was counted on a Packard Top-count microplate scintillation counter after addition of […] of microscint 40 (Canberra Packard S.A., Zürich, Switzerland).
The effects of compounds were measured using a minimum of 8 concentrations and repeated at least once. The pooled normalized values were analyzed using a non-linear regression calculation program which provide IC50) with their relative upper and lower 95% confidence limits (RS1, BBN, USA).

SMILES	IC50 [nM]
Cc1ccc(-c2cc(NCC(O)CN)c3ccccc3n2)cc1.Cl (racemic) [Example 2, (RS)-1-Amino-3-(2-p-tolyl-quinolin-4-ylamino)-propan-2-ol hydrochloride]	20
NCC(O)CNc1cc(N2CCc3ccccc3C2)nc2ccccc12 (racemic) [Example 10, (RS)-1-Amino-3-[2-(3,4-dihydro-1H-isoquinolin-2-yl)-quinolin-4-ylamino]-propan-2-ol hydrochloride]	30
OCC(O)CNc1cc(-c2ccc3c(c2)CCO3)nc2ccccc12 (racemic) [Example 32, (RS)-3-[2-(2,3-Dihydro-benzofuran-5-yl)-quinolin-4-ylamino]-propane-1,2-diol hydrochloride]	66
CNCC(O)CNc1cc(-c2ccc(OC)cc2)nc2ccccc12 (racemic) [Example 77, (RS)-1-[2-(4-Methoxy-phenyl)-quinolin-4-ylamino]-3-methylamino-propan-2-ol hydrochloride]	58
Cl.OCCNc1cc(-c2ccc3c(c2)CCCC3)nc2ccccc12 [Example 18, 2-[2-(5,6,7,8-Tetrahydro-naphthalen-2-yl)-quinolin-4-ylamino]-ethanol hydrochloride]	40
COc1ccc(-c2cc(N(C)CCO)c3ccccc3n2)cc1.Cl [Example 46, 2-{[2-(4-Methoxy-phenyl)-quinolin-4-yl]-methyl-amino}-ethanol hydrochloride]	130
